The text below walks through data of ChEMBL document CHEMBL5512637, “Development of Membrane-Targeting Fluorescent 2-Phenyl-1H-phenanthro[9,10-d]imidazole-Antimicrobial Peptide Mimic Conjugates against Methicillin-Resistant Staphylococcus aureus” (J Med Chem, 2024).

For orientation: MIC means the lowest concentration that inhibits growth of the organism. Read a high MIC as a need for much substance. By HC50 is commonly meant the concentration that lyses half of the red blood cells. A higher HC50 goes with less damage to red cells.

Each structure is given as a SMILES string.

The subject of series [1] is Staphylococcus aureus. The series can be described thus: Antibacterial activity against methicillin-resistant Staphylococcus aureus clinical isolate M-5 incubated for 16 to 18 hrs CLSI based by microbroth dilution assay. The format is functional. As to conditions: time 16-18 hrs. (In general: Dilution methods test growth across graded concentrations, often in twofold steps.)

A short description of series [2]: Hemolytic activity in sheep erythrocytes incubated for 1 hr by absorbance based assay. Type of series: toxicity, cell-based, Ovis aries, Erythrocyte.
The subject of series [3] is Staphylococcus aureus. The series is described as follows: Antibacterial activity against methicillin-resistant Staphylococcus aureus clinical isolate M-3 incubated for 16 to 18 hrs CLSI based by microbroth dilution assay. Type of series: functional. As to conditions: time 16-18 hrs.
Series [4] in a line: Selectivity index, ratio of HC50 for sheep erythrocytes to MIC for Staphylococcus aureus ATCC 29213. As to conditions: read-out: Selectivity Index. The format is toxicity.
The test system of series [5] is Staphylococcus aureus. The series is described as follows: Antibacterial activity against methicillin-resistant Staphylococcus aureus clinical isolate M-8 incubated for 16 to 18 hrs CLSI based by microbroth dilution assay. As to conditions: time 16-18 hrs. The format is functional.
The subject of series [6] is Staphylococcus aureus. The series can be described thus: Antibacterial activity against methicillin-resistant Staphylococcus aureus clinical isolate M-2 incubated for 16 to 18 hrs CLSI based by microbroth dilution assay. Type of series: functional. As to conditions: time 16-18 hrs.
For series [7], the system named is Staphylococcus aureus. The series can be described thus: Antibacterial activity against methicillin-resistant Staphylococcus aureus clinical isolate M-6 incubated for 16 to 18 hrs CLSI based by microbroth dilution assay. Type of series: functional. As to conditions: time 16-18 hrs.
In series [8] the test system is Staphylococcus aureus. The series is described as follows: Antibacterial activity against methicillin-resistant Staphylococcus aureus clinical isolate M-1 incubated for 16 to 18 hrs CLSI based by microbroth dilution assay. Type of series: functional. As to conditions: time 16-18 hrs.
The subject of series [9] is Staphylococcus aureus. The series can be described thus: Antibacterial activity against methicillin-resistant Staphylococcus aureus clinical isolate M-4 incubated for 16 to 18 hrs CLSI based by microbroth dilution assay. The format is functional. As to conditions: time 16-18 hrs.
Series [10] relates to Staphylococcus aureus. The series can be described thus: Antibacterial activity against Staphylococcus aureus ATCC 29213 incubated for 16 to 18 hrs CLSI based by microbroth dilution assay. Type of series: functional. As to conditions: time 16-18 hrs.
The test system of series [11] is Staphylococcus aureus. The series is described as follows: Antibacterial activity against methicillin-resistant Staphylococcus aureus clinical isolate M-10 incubated for 16 to 18 hrs CLSI based by microbroth dilution assay. Type of series: functional. As to conditions: time 16-18 hrs.
In series [12] the test system is Staphylococcus aureus. The series is described as follows: Antibacterial activity against methicillin-resistant Staphylococcus aureus clinical isolate M-7 incubated for 16 to 18 hrs CLSI based by microbroth dilution assay. As to conditions: time 16-18 hrs. Type of series: functional.
Series [13] concerns Staphylococcus aureus. The series is described as follows: Antibacterial activity against methicillin-resistant Staphylococcus aureus clinical isolate M-9 incubated for 16 to 18 hrs CLSI based by microbroth dilution assay. The format is functional. As to conditions: time 16-18 hrs.
In series [14] the test system is Escherichia coli. The series can be described thus: Antibacterial activity against Escherichia coli ATCC 25922 incubated for 16 to 18 hrs CLSI based by microbroth dilution assay. Type of series: functional. As to conditions: time 16-18 hrs.

With `CC(C)N(C(=O)C[N+](C)(C)CCCCCn1c(-c2ccc(N(C)C)cc2)nc2c3ccccc3c3ccccc3c21)C(C)C.[Br-]`, the MIC is 4 µg/mL in [1]; 4 µg/mL in series [3]; 2 µg/mL in series [5]; 4 µg/mL in series [6]; 4 µg/mL in series [7]; 4 µg/mL in [8]. The MIC in series [9] was 4 µg/mL; in [10], 4 µg/mL; in series [11], 4 µg/mL; in series [12], 4 µg/mL; in series [13], 4 µg/mL; in series [14], above 128 µg/mL. In [2], the HC50 at 1 h was 688 µg/mL. Moreover, the selectivity ratio in [4] amounted to 167.
As for `CCN(CC)C(=O)C[N+](C)(C)CCCn1c(-c2ccc(N(C)C)cc2)nc2c3ccccc3c3ccccc3c21.[Br-]`, the minimum inhibitory concentration (MIC) in [1] is 64 µg/mL; in series [3], 64 µg/mL; in series [5] it was 128 µg/mL; in [6] it was 64 µg/mL; in series [7] it was 128 µg/mL; in series [8], 64 µg/mL. Moreover, the MIC is 64 µg/mL in [9]; 64 µg/mL in series [10]; 64 µg/mL in series [11]; 64 µg/mL in [12]; 64 µg/mL in [13]; above 128 µg/mL in series [14]. The compound further yielded a concentration for 50% haemolysis (HC50) at 1 h in series [2] above 640 µg/mL. In series [4], the selectivity ratio was above 10.
On to `CCN(CC)C(=O)C[N+](C)(C)CCCCCn1c(-c2ccc(N(C)C)cc2)nc2c3ccccc3c3ccccc3c21.[Br-]`, for which the MIC in series [1], in series [3], in series [5], in series [6], in [7] and in [8] was 8 µg/mL throughout. Moreover, the MIC was found to be 8 µg/mL in [9]; 16 µg/mL in series [10]; 8 µg/mL in series [11]; 8 µg/mL in [12]; 8 µg/mL in series [13]; 128 µg/mL in series [14]. This compound also yielded an HC50 at 1 h in [2] of 1080 µg/mL. Moreover, the selectivity ratio in series [4] turned out to be 67.8.
Take `CC(C)CN(CC(C)C)C(=O)C[N+](C)(C)CCCCCn1c(-c2ccc(N(C)C)cc2)nc2c3ccccc3c3ccccc3c21.[Br-]`: the MIC was 2 µg/mL in [1]; 1 µg/mL in [3]; 1 µg/mL in series [5]; 1 µg/mL in series [6]; 1 µg/mL in series [7]; 1 µg/mL in series [8]. For the same compound, the MIC in series [9] is 1 µg/mL; in series [10], 1 µg/mL; in series [11], 2 µg/mL; in series [12], 1 µg/mL; in [13] it was 1 µg/mL; in series [14], above 128 µg/mL. Further, the HC50 at 1 h in series [2] is 247 µg/mL. Moreover, the selectivity ratio in series [4] amounted to 247.
Regarding `CC(C)CN(CC(C)C)C(=O)C[N+](C)(C)CCCCn1c(-c2ccc(N(C)C)cc2)nc2c3ccccc3c3ccccc3c21.[Br-]`, the MIC in [1] is 2 µg/mL; in series [3] it was 1 µg/mL; in series [5], 2 µg/mL; in [6], 2 µg/mL; in [7] it was 1 µg/mL; in series [8], 2 µg/mL. Also, the MIC was 1 µg/mL in [9]; 2 µg/mL in series [10]; 2 µg/mL in series [11]; 1 µg/mL in series [12]; 2 µg/mL in series [13]; 64 µg/mL in series [14]. The same compound came in with an HC50 at 1 h in series [2] of 158 µg/mL. Also, the selectivity ratio in [4] was above 79.1.
Regarding `CC(C)N(C(=O)C[N+](C)(C)CCCCn1c(-c2ccc(N(C)C)cc2)nc2c3ccccc3c3ccccc3c21)C(C)C.[Br-]`, the MIC in series [1], in [3], in series [5], in series [6], in series [7] and in series [8] was 8 µg/mL in each case. Further, the MIC in [9] was 8 µg/mL; in [10], 8 µg/mL; in series [11], 8 µg/mL; in series [12] it was 8 µg/mL; in series [13] it was 8 µg/mL; in series [14], above 128 µg/mL. The HC50 at 1 h in series [2] is above 640 µg/mL. Further, the selectivity ratio in [4] is above 80.
On to `CCCCN(CCCC)C(=O)C[N+](C)(C)CCCCn1c(-c2ccc(N(C)C)cc2)nc2c3ccccc3c3ccccc3c21.[Br-]`, for which the MIC in series [1] worked out at 2 µg/mL; in [3], 0.5 µg/mL; in [5], 1 µg/mL; in series [6] it was 1 µg/mL; in [7], 0.5 µg/mL; in series [8], 2 µg/mL. The minimum inhibitory concentration (MIC) in [9] was 1 µg/mL; in series [10], 1 µg/mL; in [11], 1 µg/mL; in series [12], 0.5 µg/mL; in series [13], 1 µg/mL; in series [14] it was 64 µg/mL. Moreover, the HC50 at 1 h in series [2] worked out at 79.5 µg/mL. Also, in series [4], the selectivity ratio amounted to 79.5.
For the compound `CCNC(=O)C[N+](C)(C)CCCn1c(-c2ccc(N(C)C)cc2)nc2c3ccccc3c3ccccc3c21.[Br-]`, the MIC in [1], in series [3], in [5], in series [6], in series [7] and in series [8] was 64 µg/mL throughout. Moreover, the MIC is 32 µg/mL in series [9]; 64 µg/mL in series [10]; 64 µg/mL in series [11]; 32 µg/mL in series [12]; 64 µg/mL in series [13]; above 128 µg/mL in [14]. This compound also showed an HC50 at 1 h in series [2] above 640 µg/mL. In series [4], the selectivity ratio is above 10.
Take `CN(C)c1ccc(-c2nc3c4ccccc4c4ccccc4c3n2CCC[N+](C)(C)CC(=O)N2CCSCC2)cc1.[Br-]`: the MIC came out at 64 µg/mL in series [1]; 64 µg/mL in series [3]; 128 µg/mL in series [5]; 64 µg/mL in series [6]; 64 µg/mL in [7]; 64 µg/mL in series [8]. In addition, the MIC was 64 µg/mL in series [9]; 64 µg/mL in series [10]; 64 µg/mL in series [11]; 32 µg/mL in series [12]; 64 µg/mL in series [13]; above 128 µg/mL in series [14]. Further, the concentration for 50% haemolysis (HC50) at 1 h in series [2] stood at 357 µg/mL. The selectivity ratio in series [4] amounted to 5.6.
With `CCCN(CCC)C(=O)C[N+](C)(C)CCCCn1c(-c2ccc(N(C)C)cc2)nc2c3ccccc3c3ccccc3c21.[Br-]`, the MIC in series [1], in [3], in [5], in [6], in [7] and in series [8] was 4 µg/mL throughout. Moreover, the MIC in [9] was determined as 4 µg/mL; in series [10], 4 µg/mL; in series [11], 4 µg/mL; in [12], 4 µg/mL; in series [13], 4 µg/mL; in series [14], 128 µg/mL. This compound also registered an HC50 at 1 h in series [2] of 213 µg/mL. In addition, the selectivity ratio in series [4] is 53.3.
For the compound `CN(C)c1ccc(-c2nc3c4ccccc4c4ccccc4c3n2CCCC[N+](C)(C)CC(=O)N2CCSCC2)cc1.[Br-]`, the minimum inhibitory concentration (MIC) in [1], in series [3], in series [5], in series [6], in series [7] and in series [8] was 16 µg/mL throughout. Besides, the MIC in series [9] is 16 µg/mL; in series [10], 16 µg/mL; in [11] it was 16 µg/mL; in series [12] it was 16 µg/mL; in [13] it was 16 µg/mL; in series [14], above 128 µg/mL. The HC50 at 1 h in series [2] was above 640 µg/mL. Also, the selectivity ratio in [4] is above 40.
Take `CCCNC(=O)C[N+](C)(C)CCCCn1c(-c2ccc(N(C)C)cc2)nc2c3ccccc3c3ccccc3c21.[Br-]`: the MIC in series [1] was determined as 16 µg/mL; in series [3], 8 µg/mL; in series [5] it was 4 µg/mL; in series [6] it was 8 µg/mL; in series [7], 8 µg/mL; in [8] it was 16 µg/mL. For the same compound, the MIC came out at 8 µg/mL in series [9]; 8 µg/mL in series [10]; 16 µg/mL in series [11]; 4 µg/mL in series [12]; 8 µg/mL in [13]; 64 µg/mL in series [14]. Besides, the concentration for 50% haemolysis (HC50) at 1 h in [2] stood at 290 µg/mL. Also, the selectivity ratio in series [4] is 36.3.
As for `CCCCCNC(=O)C[N+](C)(C)CCCCCn1c(-c2ccc(N(C)C)cc2)nc2c3ccccc3c3ccccc3c21.[Br-]`, the MIC in series [1] was 2 µg/mL; in series [3], 2 µg/mL; in [5] it was 2 µg/mL; in series [6] it was 2 µg/mL; in series [7], 2 µg/mL; in series [8], 4 µg/mL. For the same compound, the MIC in series [9] is 2 µg/mL; in series [10], 2 µg/mL; in series [11], 4 µg/mL; in [12], 2 µg/mL; in [13], 2 µg/mL; in [14], 64 µg/mL. This compound gave an HC50 at 1 h in series [2] of 572 µg/mL. For the same compound, the selectivity ratio in series [4] came out at 286.
